Assay results taken from EP0113508A1, “Hydrophobic platinum compounds and their preparation” (Inco Research & Development Center, Inc., priority 1982, dated 1984).

Assays:
L1210 leukemic cells = assay: Chemotherapy of mice injected intravenously with L1210 leukemic cells; increase in life span (ILS) versus controls; type: in vivo; conditions: preliminary
Text: To deliver the water insoluble cis Pt (II) analogues for chemotheraphy, they were encapsulated in sonicated phosphatidylcholine (PC) vesicles. To prepare these PC vesicles, both the cis Pt (II) analogue and PC had to be lyophilized from cyclohexane or benzene to give a dry powder for hydration by an aqueous medium. Simply drying down an organic solution of both the cis Pt (II) analogue and the PC gave unsatisfactory results upon hydration. The lyophilized samples were hydrated with physiological saline and then sonicated at 4°C using a W-375 Branson sonicator, under a nitrogen atmosphere. The sonicated samples were spun at 12,000 x G for 5 minutes to remove any titanium fragments from the sonicator probe and any undispersed lipid. […] Therefore all preparations were passed down a G-50 gel permeation column to separate any free cis Pt (II) from the hydrophobic cis Pt (II) analogue encapsulated in egg PC vesicles had better structural integrity and more uniform size distribution than the same analogues in soy PC vesicles. […] That is, the vesicles containing the cis Pt (II) analogues that had the lowest amounts of free phosphatidic acid, had the best structural stability and smaller size ranges. This is in direct contrast to the effect of phosphatidic acid in PC vesicles in the absence of the cis Pt (II) analogues.
The fractions from the G-50 column containing the encapsulated cis Pt (II) analogues were concentrated by ultrafiltration to the desired concentration for chemotheraphy studies.
Various compounds synthesized and incorporated in liposomal vesicles in the foregoing manner were employed in the chemotherapy of mice. The testing consisted of injections of 10 5 L1210 leukemic cells intravenuously into mice. One day later, a single -intravenous dose of the cis Pt (II) analogue in a sonicated PC vesicle was given. Increase in life span (ILS) was then measured relative to control animals who received only saline or PC vesicles alone as intravenous injections. Data are shown in Table I, together with data on some tests in which samples were not passed through a gel permeation column to remove free cis Pt (II), but an injectable preparation was made by the addition of "Tween" 80.

[1] = Toxicity (LD10) of the cis Pt (II) analogues in PC vesicles; type: in vivo, mice; conditions: passed through G-50 column, preliminary
[2] = Egg PC vesicle, passed through G-50 column, single intravenous dose one day after L1210 cells i.v.
[3] = Egg PC vesicle, passed through G-50 column, single intravenous dose
[4] = Soy PC vesicle, passed through G-50 column, single intravenous dose one day after L1210 cells i.v.
[5] = Soy PC vesicle, passed through G-50 column, single intravenous dose

Row | Substance | % ILS at Optimal Dose (L1210 leukemic cells; [2]) | Optimal Dose (L1210 leukemic cells; [3]) | % ILS at Optimal Dose (L1210 leukemic cells; Soy PC vesicle, samples not treated by G-50 column and Tween-80 added, single intravenous dose) | LD10 ([1]; Egg PC vesicle) | % ILS at Optimal Dose (L1210 leukemic cells; [4]) | Optimal Dose (L1210 leukemic cells; [5]) | LD10 ([1]; Soy PC vesicle)
1 | Dioleyl Phosphaditic Acid 1,2 Diaminocyclohexane Cis Pt (II) [Dioleyl phosphatidic acid DAC] | 83% | 39 mg Pt/kg | 0% | 58 mg Pt/kg | – | – | –
2 | Soy Phosphaditic Acid Bis Cyclohexylamine Cis Pt (II) | – | – | – | – | 16% | 155 mg Pt/kg | 500 mg Pt/kg
3 | Dipalmitoyl Phosphatidic Acid 1,2 Diaminocyclohexane Cis Pt (II) [Dipalmitoyl phosphatidic acid DAC] | 100% | 39 mg Pt/kg | – | 58 mg Pt/kg | – | – | –
4 | Egg Phosphaditic Acid 1,2 Diaminocyclohexane Cis Pt (II) [Egg phosphatidic acid DAC] | 50% | 26 mg Pt/kg | – | >58 mg Pt/kg | – | – | –
5 | Soy Phosphatidic Acid Bis Cyclopentylamine Cis Pt (II) | – | – | – | – | 16% | 125 mg Pt/kg | 125 mg Pt/kg
6 | Soy Phosphatidic Acid Bis Isoamylamine Cis Pt (II) | – | – | – | – | 8% | 155 mg Pt/kg | 345 mg Pt/kg
